Laboratory results reported in ChEMBL document CHEMBL2046307, “Plumbagin induces apoptosis in Her2-overexpressing breast cancer cells through the mitochondrial-mediated pathway” (J Nat Prod, 2012).
Calls of active or inactive are those of the source. The rule behind the calls is not given here.

Columns and labels:
BT-474 [1] = assay: Induction of apoptosis in Her2-overexpressing human BT474 cells assessed as increase in BaK protein level after 24 hrs by Western blot analysis; format: functional, cell-based
BT-474 [2] = assay: Induction of apoptosis in Her2-overexpressing human BT474 cells assessed as increase in Bax protein level after 24 hrs by Western blot analysis; format: functional, cell-based
SK-BR-3 [3] = assay: Induction of apoptosis in Her2-overexpressing human SKBR3 cells assessed as increase in caspase activity after 6 hrs by fluorescence analysis relative to control; format: functional
BT-474 [4] = assay: Induction of apoptosis in Her2-overexpressing human BT474 cells assessed as increase in caspase activity at 10 uM after 6 hrs by fluorescence analysis relative to control; format: functional
SK-BR-3 [5] = assay: Induction of apoptosis in Her2-overexpressing human SKBR3 cells assessed as increase in caspase activity after 6 hrs by fluorescence analysis; format: functional, cell-based
BT-474 [6] = assay: Induction of apoptosis in Her2-overexpressing human BT474 cells assessed as increase in caspase activity after 6 hrs by fluorescence analysis; format: functional, cell-based
BT-474 [7] = assay: Induction of apoptosis in Her2-overexpressing human BT474 cells assessed as accumulation at subG1 phase by propidium iodide staining-based flow cytometric analysis; format: functional, cell-based
SK-BR-3 [8] = assay: Induction of cell cycle arrest in Her2-overexpressing human SKBR3 cells assessed as increase in DNA accumulation at subG1 phase at 10 uM after 24 hrs by propidium iodide staining-based flow cytometric analysis (reference value: 11%); format: functional
SK-BR-3 [9] = assay: Induction of cell cycle arrest in Her2-overexpressing human SKBR3 cells assessed as increase in DNA accumulation at subG1 phase at 5 uM after 24 hrs by propidium iodide staining-based flow cytometric analysis (reference value: 11%); format: functional
SK-BR-3 [10] = assay: Induction of cell cycle arrest in Her2-overexpressing human SKBR3 cells assessed as increase in DNA accumulation at subG1 phase at 2.5 uM after 24 hrs by propidium iodide staining-based flow cytometric analysis (reference value: 11%); format: functional
SK-BR-3 [11] = assay: Induction of cell cycle arrest in Her2-overexpressing human SKBR3 cells assessed as increase in DNA accumulation at subG1 phase after 24 hrs by propidium iodide staining-based flow cytometric analysis; format: functional
SK-BR-3 [12] = assay: Anticlonogenic activity in Her2-overexpressing human SKBR3 cells assessed as inhibition of colony formation at 1 uM after 6 hrs followed by washout measured after 16 days by crystal violet staining; format: functional
BT-474 [13] = assay: Anticlonogenic activity in Her2-overexpressing human BT474 cells assessed as inhibition of colony formation at 1 uM after 6 hrs followed by washout measured after 16 days by crystal violet staining; format: functional
BT-474 [14] = assay: Cytotoxicity against Her2-overexpressing human BT474 cells after 72 hrs by MTT assay; format: functional, cell-based; conditions: BT-474, 72 h
SK-BR-3 [15] = assay: Cytotoxicity against Her2-overexpressing human SKBR3 cells after 72 hrs by MTT assay; format: functional, cell-based; conditions: SK-BR-3, 72 h
BT-474 [16] = assay: Cytotoxicity against Her2-overexpressing human BT474 cells after 24 hrs by MTT assay; format: functional, cell-based; conditions: BT-474, 24 h
SK-BR-3 [17] = assay: Cytotoxicity against Her2-overexpressing human SKBR3 cells after 24 hrs by MTT assay; format: functional, cell-based; conditions: SK-BR-3, 24 h
MDA-MB-231 = assay: Antitumor activity against human MDA-MB-231 cells xenografted in nude mouse assessed as decrease in tumor volume; format: functional; design: scale not given: the % may be the effect or the level left
BT-474 [18] = assay: Ratio of IC50 for Her2-overexpressing human BT474 cells after 24 hrs to IC50 for Her2-overexpressing human BT474 cells after 72 hrs; format: functional
SK-BR-3 [19] = assay: Cytotoxicity against Her2-overexpressing human SKBR3 cells after 24 to 72 hrs by MTT assay; format: functional, cell-based
BT-474 [20] = assay: Cytotoxicity against Her2-overexpressing human BT474 cells after 24 to 72 hrs by MTT assay; format: functional, cell-based
BT-474 [21] = assay: Anticlonogenic activity in Her2-overexpressing human BT474 cells assessed as inhibition of colony formation after 6 hrs followed by washout measured after 16 days by crystal violet staining; format: functional, cell-based
SK-BR-3 [22] = assay: Anticlonogenic activity in Her2-overexpressing human SKBR3 cells assessed as inhibition of colony formation after 6 hrs followed by washout measured after 16 days by crystal violet staining; format: functional, cell-based
SK-BR-3 [23] = assay: Induction of apoptosis in Her2-overexpressing human SKBR3 cells assessed as decrease in Bcl-2 protein level after 24 hrs by Western blot analysis; format: functional, cell-based
BT-474 [24] = assay: Induction of apoptosis in Her2-overexpressing human BT474 cells assessed as decrease in Bcl-2 protein level after 24 hrs by Western blot analysis; format: functional, cell-based
SK-BR-3 [25] = assay: Induction of apoptosis in Her2-overexpressing human SKBR3 cells assessed as increase in BaK protein level after 24 hrs by Western blot analysis; format: functional, cell-based
SK-BR-3 [26] = assay: Induction of apoptosis in Her2-overexpressing human SKBR3 cells assessed as increase in Bax protein level after 24 hrs by Western blot analysis; format: functional, cell-based

CC1=CC(=O)c2c(O)cccc2C1=O [PLUMBAGIN]
Activity (BT-474 [1]): Dose-dependent effect
Activity (BT-474 [2]): Dose-dependent effect
fold change (FC) (SK-BR-3 [3]): 4
fold change (FC) (BT-474 [4]): 5
Activity (SK-BR-3 [5]): Dose-dependent effect
Activity (BT-474 [6]): Dose-dependent effect
Activity (BT-474 [7]): inactive
Activity (SK-BR-3 [8]): 73%
Activity (SK-BR-3 [9]): 43%
Activity (SK-BR-3 [10]): 20%
Activity (SK-BR-3 [11]): Dose-dependent effect
inhibition at 1 µM (SK-BR-3 [12]): 50%
inhibition at 1 µM (BT-474 [13]): 40%
IC50 (BT-474 [14]): 800 nM
IC50 (SK-BR-3 [15]): 1800 nM
IC50 (BT-474 [16]): 1800 nM
IC50 (SK-BR-3 [17]): 3200 nM
Activity (MDA-MB-231): 70%
Ratio IC50 (BT-474 [18]): 2
Activity (SK-BR-3 [19]): Dose-dependent effect
Activity (BT-474 [20]): Dose-dependent effect
Activity (BT-474 [21]): Dose-dependent effect
Activity (SK-BR-3 [22]): Dose-dependent effect
Activity (SK-BR-3 [23]): Active
Activity (BT-474 [24]): Active
Activity (SK-BR-3 [25]): Dose-dependent effect
Activity (SK-BR-3 [26]): Dose-dependent effect
